According to PMC11062894, “Protein-based bandpass filters for controlling cellular signaling with chemical inputs” (Nature Chemical Biology, 2023):
Values joined by “and” are separate entries in the source; they are usually repeats but may differ in a detail not shown here. Equal values may be shown once.

Test system: GEMS receptors with CBPA11 (BclXL–LD3 and BclXLhigh variants), STAT3-driven SEAP in HEK293T cells
Assay: GEMS SEAP reporter assay, CBPA11 (BclXLhigh, LD3-v and BclXL-v variants) with A-1155463
Type: cell-based
Parameters: key to Raw data (SEAP) / SEAP, replicate values / Raw data of Figure 5b / Raw data Figure 5e / Raw data of Independent repeat of CBPA11-v1 vs CBPA11-v1-LD3v3 / Raw data of Independent repeat of CBPA11-v3 vs CBPA11-v3-LD3v3 / Raw data of Figure 5b, CBPA11-v1-LD3v3 (SEAP reporter raw value, single replicate) / Raw data of Figure 5b, CBPA11-v1 (SEAP reporter raw value, single replicate): SEAP activity in U/L in culture supernatant
From the text: To rationally design a CBP responding to a chemical input, we used BclXL as the druglow receptor, LD3 as the designed binder and a designed BclXL variant as the drughigh receptor (referred to as BclXLhigh) to construct a CBP responsive to BclXL inhibitors (Fig. 4a). To design BclXLhigh, we used a multistate design computational protocol described elsewhere[26] […] Thus, BclXLhigh-v(1–3) were chosen as the functional drughigh receptors, resulting in three A-1155463-controlled CBPs (referred to as CBPA11-v(1–3)) (Fig. 4c–e).
HEK293T cells were seeded in a 96-well plate 24 h before transfection. The transfection mix in each well consisted of 3 ng of constitutive human CMV promoter driven mammalian STAT3 expression vector (PhCMV-STAT3-pA), 30 ng of STAT3-induced reporter expression (OStat3-PhCMVmin-SEAP-pA) and 50 ng of expression vectors for each GEMS receptor chain (PSV40-IgK-(drughigh receptor)-EpoRm-IL-6RBm-pA and PSV40-IgK-(druglow receptor-GGGGSX3-LD3)-EpoRm-IL-6RBm-pA). For the specific drughigh receptor and druglow receptor used in the different cellular assays, they are indicated as wild type or with mutations. Then, plasmid DNA was mixed with 50 μl opti-MEM (Thermo Fisher) and 600 ng of polyethyleneimine (Polysciences, catalog no. 24765-1). For drug treatment experiments, drugs were added 12 h post-transfection and incubated with cells for 24 h before the SEAP reporter detection assay.
SEAP activity (U l^−1) in cell culture supernatants was quantified by kinetic measurements at 405 nm (1 minute per measurement for 30 cycles) of absorbance increase due to phosphatase-mediated hydrolysis of para-nitrophenyl phosphate (pNPP).
Binding affinities of SPR drug competition assays were calculated using three-parameter nonlinear regression in GraphPad Prism (v.8.3.0). Representative data of cell assays are presented as individual values and mean values (bars). n = 3 refers to biological replicates. All IC50 or EC50 values of cell assays reported were calculated using four-parameter nonlinear regression ± s.d. Bandpass features of cutoff concentrations and Bandwidth90% were estimated based on the curve fitted using bell-shaped curve nonlinear regression in GraphPad Prism (v.8.3.0). […]
Supplementary Figure 4: Design, screening and validation of BclXLhigh variants. a) Screening of BclXLhigh variants in the GEMS platform. […]
Dissociation constant measurement of BclXLhigh-v(1-3) and LD3. Equilibrium curves are fitted using […]
BclXLhigh-v1 (purple), BclXLhigh-v2 (blue), […]
a) Bcl2high-based bandpass filter designs were developed and to respond to different concentrations of […]
corresponding inhibitor. c) Screening of Bcl2high-based bandpass filter variants in the GEMS platform.
The designed binder LD3 was fused to the druglow-receptor (PSV40-IgK-Bcl2-LD3-EpoRm-IL-6RBm-pA) in one EpoR chain and Bcl2high variants with the insensitive Bcl2 (iBcl2) as control in the other EpoR chain (PSV40-IgK-Bcl2high-EpoRm-IL-6RBm-pA). HEK293T cells were transfected with indicated […]
the mean of six biological replicates ± s.d., overlaid with a scatter dot plot of the original data points.
(1 picture or pasted object on this page, not shown here)
Supplementary Figure 6: Binding affinities and drug resistances of Bcl2high-v(2,4,5) assessed by […]
a) Measurement of dissociation constants for Bcl2high-v(2,4,5) and LD3 interactions. Equilibrium curves […]
Bcl2high-v(2,4,5) measured by SPR. 5 μM of Bcl2 or indicated variants were mixed with 10 μM of […]
Bcl2high-v2 (red), Bcl2high-v4
Supplementary Figure 7: Screening of LD3 variants in CBPA11-v(1-3) and raw data of CBPA11-v(1,3) with LD3-v3 variant. a-c) Screening of LD3 and LD3-v(1-3) variants in complex with BclXL for more sensitive CBPA11-v1 (a), CBPA11-v2 (b), CBPA11-v3 (c) in the GEMS platform. The LD3 variants replaced the role of LD3 (PSV40-IgK-BclXL-LD3-v(1-3)-EpoRm-IL-6RBm-pA) in one EpoR chain and BclXLhigh-v(1-3) in the other EpoR chain (PSV40-IgK-BclXLhigh-V(1-3)-EpoRm-IL-6RBm-pA). HEK293T cells were transfected with […]

## CN(C)CC#Cc1ccc(OCCCc2sc(N3CCc4cccc(C(=O)Nc5nc6ccccc6s5)c4C3)nc2C(=O)O)c(F)c1 [A-1155463]
A-1155463 10000 nM, construct CBPA11-v1-LD3v3, three replicate columns
  Raw data of Figure 5b, CBPA11-v1-LD3v3 (SEAP reporter raw value, single replicate): 23.9254 and 24.8005 and 21.4423
A-1155463 10000 nM, construct CBPA11-v1, three replicate columns
  Raw data of Figure 5b, CBPA11-v1 (SEAP reporter raw value, single replicate): 69.4522 and 75.5808 and 84.1281
CBPA11-v1, A-1155463 0.01 nM
  Raw data of Independent repeat of CBPA11-v1 vs CBPA11-v1-LD3v3: 21.5154 and 21.2395 and 24.0629
CBPA11-v1, A-1155463 1 nM
  Normalized data Figure 5e: 6.4824 and 7.053 and 8.837
  Normalized data of Figure 5b: 1.402 and 1.595 and 1.731
  Raw data of Figure 5b: 11.9307 and 13.3631 and 14.4518
  Raw data of Independent repeat of CBPA11-v1 vs CBPA11-v1-LD3v3: 71.2806 and 66.4229 and 63.7452
CBPA11-v1, A-1155463 3.16 nM
  Raw data of Independent repeat of CBPA11-v1 vs CBPA11-v1-LD3v3: 80.0965 and 82.8427 and 80.4448
CBPA11-v1, A-1155463 3.18 nM
  Normalized data Figure 5e: 7.202 and 10.0096 and 11.7189
CBPA11-v1, A-1155463 10 nM
  Normalized data Figure 5e: 46.8388 and 51.1661 and 51.2149
  Normalized data of Figure 5b: 14.5535 and 13.2638 and 13.0086
  Raw data of Figure 5b: 123.839 and 111.135 and 108.599
  Raw data of Independent repeat of CBPA11-v1 vs CBPA11-v1-LD3v3: 462.474 and 463.658 and 418.386
CBPA11-v1, A-1155463 31.6 nM
  Raw data of Independent repeat of CBPA11-v1 vs CBPA11-v1-LD3v3: 571.289 and 570.216 and 457.441
CBPA11-v1, A-1155463 31.8 nM
  Normalized data Figure 5e: 63.7218 and 71.158 and 71.088
  Normalized data of Figure 5b: 45.8074 and 33.2331 and 44.7698
  Raw data of Figure 5b: 389.784 and 278.454 and 373.749
CBPA11-v1, A-1155463 100 nM
  Normalized data Figure 5e: 98.9083 and 100
  Normalized data of Figure 5b: 66.3164 and 72.6195 and 72.7718
  Raw data of Figure 5b: 564.299 and 608.466 and 607.516
  Raw data of Independent repeat of CBPA11-v1 vs CBPA11-v1-LD3v3: 770.33 and 757.162 and 752.74
CBPA11-v1, A-1155463 316 nM
  Raw data of Independent repeat of CBPA11-v1 vs CBPA11-v1-LD3v3: 692.583 and 694.97 and 762.999
CBPA11-v1, A-1155463 318 nM
  Normalized data Figure 5e: 100 and 89.6838 and 88.8002
  Normalized data of Figure 5b: 100
  Raw data of Figure 5b: 850.92 and 837.883 and 834.824
CBPA11-v1, A-1155463 1000 nM
  Normalized data Figure 5e: 87.8736 and 79.7319 and 71.766
  Normalized data of Figure 5b: 69.8009 and 76.8483 and 84.4115
  Raw data of Figure 5b: 593.95 and 643.898 and 704.687
  Raw data of Independent repeat of CBPA11-v1 vs CBPA11-v1-LD3v3: 543.865 and 540.678 and 577.914
CBPA11-v1, A-1155463 3160 nM
  Raw data of Independent repeat of CBPA11-v1 vs CBPA11-v1-LD3v3: 413.782 and 413.648 and 344.2
CBPA11-v1, A-1155463 3180 nM
  Normalized data Figure 5e: 51.7606 and 52.3661 and 51.7462
  Normalized data of Figure 5b: 53.3499 and 60.9077 and 57.5176
  Raw data of Figure 5b: 453.965 and 510.335 and 480.171
CBPA11-v1, A-1155463 10000 nM
  Normalized data Figure 5e: 19.9955 and 19.9571 and 22.5422
  Normalized data of Figure 5b: 33.8321 and 33.8547 and 35.5742
  Raw data of Figure 5b: 287.884 and 283.663 and 296.982
  Raw data of Independent repeat of CBPA11-v1 vs CBPA11-v1-LD3v3: 129.42 and 154.739 and 117.07
CBPA11-v1-BclXLv2, A-1155463 1 nM
  Normalized data Figure 5e: 21.782 and 18.7434 and 19.0174
CBPA11-v1-BclXLv2, A-1155463 3.18 nM
  Normalized data Figure 5e: 30.7821 and 38.1789 and 36.4445
CBPA11-v1-BclXLv2, A-1155463 10 nM
  Normalized data Figure 5e: 85.4791 and 79.6848 and 85.0591
CBPA11-v1-BclXLv2, A-1155463 31.8 nM
  Normalized data Figure 5e: 84.8971 and 95.7911 and 86.6879
CBPA11-v1-BclXLv2, A-1155463 100 nM
  Normalized data Figure 5e: 100 and 90.6768
CBPA11-v1-BclXLv2, A-1155463 318 nM
  Normalized data Figure 5e: 91.2979 and 98.815 and 100
CBPA11-v1-BclXLv2, A-1155463 1000 nM
  Normalized data Figure 5e: 86.9949 and 91.0394 and 83.6084
CBPA11-v1-BclXLv2, A-1155463 3180 nM
  Normalized data Figure 5e: 69.3324 and 72.9533 and 70.3736
CBPA11-v1-BclXLv2, A-1155463 10000 nM
  Normalized data Figure 5e: 38.0946 and 36.2941 and 35.5843
CBPA11-v1-LD3v3, A-1155463 0.01 nM
  Raw data of Independent repeat of CBPA11-v1 vs CBPA11-v1-LD3v3: 17.2788 and 15.3201 and 15.4842
